Assay results as given in patent US10000456B2, “Polycyclic compounds as lysophosphatidic acid receptor antagonists” (AMIRA PHARMACEUTICALS, INC., priority 2009, dated 2018).
pIC50: −log10 of the molar value.

system: A2058 human melanoma cells; test: LPA1 chemotaxis assay; type: cell-based; settings: LPA 100 nM, read-out: IC50, inhibition of LPA-driven chemotaxis
Protocol: Chemotaxis of the A2058 human melanoma cells was measured using the Neuroprobe CHEMOTX® System plates ([…], 5.7 mm diameter sites). The filter sites were coated with 0.001% fibronectin (Sigma) in 20 mM Hepes, pH 7.4 and allowed to dry. A2058 cells were serum-starved for 24 hours, then harvested with Cell Stripper and resuspended in DMEM containing 0.1% fatty-acid-free bovine serum albumin (BSA) to a concentration of 1×10^6/ml. Cells were mixed with an equal volume of test compound (2×) in DMEM containing 0.1% fatty-acid-free BSA and incubated at 37° C. for 15 minutes. LPA (100 nM in DMEM containing 0.1% fatty-acid-free BSA) or vehicle was added to each well of the lower chamber and 50 μl of the cell suspension/test compound mix was applied to the upper portion of the CHEMOTX® plate. Plates were incubated at 37° C. for three hours and then the cells removed from the upper portion by rinsing with PBS and scraping. The filter was dried then stained with HEMA 3® Staining System (Fisher Scientific). The absorbance of the filter was read at 590 nm and IC50s were determined using SYMYX® Assay Explorer.

pIC50	Structure (SMILES)
> 7.00	Cc1noc(-c2ccc(-c3ccc(C4(C(=O)NS(C)(=O)=O)CC4)cc3)cc2)c1C(O)c1cn(Cc2ccccc2)nn1 (single isomer, unassigned) [Compound 91, N-[1-(4′-{4-[(1-Benzyl-1H-[1,2,3]triazol-4-yl)-hydroxy-methyl]-3-methyl-isoxazol-5-yl}-biphenyl-4-yl)-cyclopropanecarbonyl]-methanesulfonamide]
> 7.00	Cc1noc(-c2ccc(-c3ccc(C4(C(=O)NS(C)(=O)=O)CC4)cc3)cc2)c1C(O)c1nnc(Cc2ccccc2)o1 (single isomer, unassigned) [Compound 92, N-[1-(4′-{4-[(5-Benzyl-[1,3,4]oxadiazol-2-yl)-hydroxy-methyl]-3-methyl-isoxazol-5-yl}-biphenyl-4-yl)-cyclopropanecarbonyl]-methanesulfonamide]
> 7.00	Cc1noc(-c2ccc(-c3ccc(C4(C(=O)O)CC4)cc3)cc2)c1C(O)c1nnc(Cc2ccccc2)o1 (stereo not shown) [Compound 13, 1-(4′-{4-[(5-Benzyl-[1,3,4]oxadiazol-2-yl)-hydroxy-methyl]-3-methyl-isoxazol-5-yl}-biphenyl-4-yl)-cyclopropanecarboxylic acid]
> 7.00	Cc1noc(-c2ccc(-c3ccc(C4(C(=O)O)CC4)cc3)cc2)c1C(O)c1cn(C(C)c2ccccc2)nn1 (stereo not shown) [Compound 23, 1-[4′-(4-{Hydroxy-[1-(1-phenyl-ethyl)-1H-[1,2,3]triazol-4-yl]-methyl}-3-methyl-isoxazol-5-yl)-biphenyl-4-yl]-cyclopropanecarboxylic acid]
> 7.00	Cc1noc(-c2ccc(-c3ccc(C4(C(=O)O)CC4)cc3)cc2)c1C(O)c1cccc(Cc2ccccc2)c1 (stereo not shown) [Compound 26, 1-(4′-{4-[(3-Benzyl-phenyl)-hydroxy-methyl]-3-methyl-isoxazol-5-yl}-biphenyl-4-yl)-cyclopropanecarboxylic acid]
> 7.00	Cc1noc(-c2ccc(-c3ccc(C4(C(=O)O)CC4)cc3)cc2)c1C(O)c1cncc(Cc2ccccc2)c1 (stereo not shown) [Compound 27, 1-(4′-{4-[(5-Benzyl-pyridin-3-yl)-hydroxy-methyl]-3-methyl-isoxazol-5-yl}-biphenyl-4-yl)-cyclopropanecarboxylic acid]
> 7.00	Cc1noc(-c2ccc(-c3ccc(C4(C(=O)O)CC4)cc3)cc2)c1[C@@H](O)c1cn([C@H](C)c2ccccc2)nn1 [Compound 32, 1-[4′-(4-{(R)-Hydroxy-[1-((R)-1-phenyl-ethyl)-1H-[1,2,3]triazol-4-yl]-methyl}-3-methyl-isoxazol-5-yl)-biphenyl-4-yl]-cyclopropanecarboxylic acid]
> 7.00	Cc1noc(-c2ccc(-c3ccc(C4(C(=O)O)CC4)cc3)cc2)c1Nc1cccc(-c2ccccc2)n1 [Compound 33, 1-{4′-[3-Methyl-4-(6-phenyl-pyridin-2-ylamino)-isoxazol-5-yl]-biphenyl-4-yl}-cyclopropanecarboxylic acid]
> 7.00	Cc1noc(-c2ccc(-c3ccc(C4(C(=O)O)CC4)cc3)cc2)c1Nc1cccc(Cc2ccccc2)n1 [Compound 38, 1-{4′-[4-(6-Benzyl-pyridin-2-ylamino)-3-methyl-isoxazol-5-yl]-biphenyl-4-yl}-cyclopropanecarboxylic acid]
> 7.00	Cc1noc(-c2ccc(-c3ccc(C4(C(=O)O)CC4)cc3)cc2)c1Nc1cccc(-c2ccccc2)c1 [Compound 39, 1-{4′-[4-(Biphenyl-3-ylamino)-3-methyl-isoxazol-5-yl]-biphenyl-4-yl}-cyclopropanecarboxylic acid]
> 7.00	Cc1noc(-c2ccc(-c3ccc(C4(C(=O)O)CC4)cc3)cc2)c1Nc1cccc(-c2cccc(C(F)(F)F)c2)n1 [Compound 41, 1-(4′-{3-Methyl-4-[6-(3-trifluoromethyl-phenyl)-pyridin-2-ylamino]-isoxazol-5-yl}-biphenyl-4-yl)-cyclopropanecarboxylic acid]
> 7.00	Cc1noc(-c2ccc(-c3ccc(C4(C(=O)O)CC4)cc3)cc2)c1Nc1nnc(Cc2ccccc2)o1 [Compound 44, 1-{4′-[4-(5-Benzyl-[1,3,4]oxadiazol-2-ylamino)-3-methyl-isoxazol-5-yl]-biphenyl-4-yl}-cyclopropanecarboxylic acid]
> 7.00	Cc1noc(-c2ccc(-c3ccc(C4(C(=O)O)CC4)cc3)cc2)c1Nc1cccc(Cc2ccccc2F)n1 [Compound 45, 1-(4′-{4-[6-(2-Fluoro-benzyl)-pyridin-2-ylamino]-3-methyl-isoxazol-5-yl}-biphenyl-4-yl)-cyclopropanecarboxylic acid]
> 7.00	Cc1noc(-c2ccc(-c3ccc(C4(C(=O)O)CC4)cc3)cc2)c1Nc1cccc(Cc2cccc(F)c2)n1 [Compound 46, 1-(4′-{4-[6-(3-Fluoro-benzyl)-pyridin-2-ylamino]-3-methyl-isoxazol-5-yl}-biphenyl-4-yl)-cyclopropanecarboxylic acid]
> 7.00	Cc1noc(-c2ccc(-c3ccc(C4(C(=O)O)CC4)cc3)cc2)c1Nc1cccc(Cc2ccc(F)cc2)n1 [Compound 47, 1-(4′-{4-[6-(4-Fluoro-benzyl)-pyridin-2-ylamino]-3-methyl-isoxazol-5-yl}-biphenyl-4-yl)-cyclopropanecarboxylic acid]
> 7.00	Cc1noc(-c2ccc(-c3ccc(C4(C(=O)O)CC4)cc3)cc2)c1Nc1cccc(Cc2ccccc2)c1 [Compound 49, 1-{4′-[4-(3-Benzyl-phenylamino)-3-methyl-isoxazol-5-yl]-biphenyl-4-yl}-cyclopropanecarboxylic acid]
> 7.00	Cc1noc(-c2ccc(-c3ccc(C4(C(=O)O)CC4)cc3)cc2)c1Nc1cccc(-c2cccc(F)c2)n1 [Compound 52, 1-(4′-{4-[6-(3-Fluoro-phenyl)-pyridin-2-ylamino]-3-methyl-isoxazol-5-yl}-biphenyl-4-yl)-cyclopropanecarboxylic acid]
> 7.00	Cc1noc(-c2ccc(-c3ccc(C4(C(=O)O)CC4)cc3)cc2)c1Nc1cncc(-c2ccccc2)c1 [Compound 58, 1-{4′-[3-Methyl-4-(5-phenyl-pyridin-3-ylamino)-isoxazol-5-yl]-biphenyl-4-yl}-cyclopropanecarboxylic acid]
> 7.00	Cc1noc(-c2ccc(-c3ccc(C4(C(=O)O)CC4)cc3)cc2)c1Nc1cncc(-c2cccc(F)c2)c1 [Compound 59, 1-(4′-{4-[5-(3-Fluoro-phenyl)-pyridin-3-ylamino]-3-methyl-isoxazol-5-yl}-biphenyl-4-yl)-cyclopropanecarboxylic acid]
> 7.00	Cc1noc(-c2ccc(-c3ccc(C4(C(=O)O)CC4)cc3)cc2)c1Nc1cccc(-c2ccccc2Cl)n1 [Compound 60, 1-(4′-{4-[6-(2-Chloro-phenyl)-pyridin-2-ylamino]-3-methyl-isoxazol-5-yl}-biphenyl-4-yl)-cyclopropanecarboxylic acid]
> 7.00	Cc1noc(-c2ccc(-c3ccc(C4(C(=O)O)CC4)cc3)cc2)c1Nc1cncc(-c2ccccc2Cl)c1 [Compound 64, 1-(4′-{4-[5-(2-Chloro-phenyl)-pyridin-3-ylamino]-3-methyl-isoxazol-5-yl}-biphenyl-4-yl)-cyclopropanecarboxylic acid]
> 7.00	Cc1noc(-c2ccc(-c3ccc(C4(C(=O)O)CC4)cc3)cc2)c1Nc1nccc(-c2ccccc2)n1 [Compound 66, 1-{4′-[3-Methyl-4-(4-phenyl-pyrimidin-2-ylamino)-isoxazol-5-yl]-biphenyl-4-yl}-cyclopropanecarboxylic acid]
